According to US9650371B2, “Sulfur-containing heterocyclic derivative having beta secretase inhibitory activity” (Shionogi & Co., Ltd., priority 2008, dated 2017):

Target: human ether-a-go-go related gene (hERG) channel (Homo sapiens (Human), UniProt Q12809)
Assay: hERG test
Format: cell-based
Conditions: HEK293 cells expressing hERG, whole cell patch clamp, 10 minutes
Text: For the purpose of assessing risk of an electrocardiogram QT interval prolongation, effects on delayed rectifier K+ current (IKr), which plays an important role in the ventricular repolarization process, was studied using HEK293 cells expressing human ether-a-go-go related gene (hERG) channel.
After a cell was retained at a membrane potential of −80 mV by whole cell patch clamp method using an automated patch clamp system (PatchXpress 7000A, Axon Instruments Inc.), IKr induced by depolarization pulse stimulation at +50 mV for 2 seconds and, further, repolarization pulse stimulation at −50 mV for 2 seconds was recorded. […] From the recording IKr, an absolute value of the tail peak current was measured based on the current value at the resting membrane potential using an analysis software (DataXpress ver.1, Molecular Devices Corporation). Further, the % inhibition relative to the tail peak current before application of the test substance was calculated, and compared with the vehicle-applied group (0.1% dimethyl sulfoxide solution) to assess influence of the test substance on IKr.

human ether-a-go-go related gene (hERG) channel, sequence (Q12809 whole entry): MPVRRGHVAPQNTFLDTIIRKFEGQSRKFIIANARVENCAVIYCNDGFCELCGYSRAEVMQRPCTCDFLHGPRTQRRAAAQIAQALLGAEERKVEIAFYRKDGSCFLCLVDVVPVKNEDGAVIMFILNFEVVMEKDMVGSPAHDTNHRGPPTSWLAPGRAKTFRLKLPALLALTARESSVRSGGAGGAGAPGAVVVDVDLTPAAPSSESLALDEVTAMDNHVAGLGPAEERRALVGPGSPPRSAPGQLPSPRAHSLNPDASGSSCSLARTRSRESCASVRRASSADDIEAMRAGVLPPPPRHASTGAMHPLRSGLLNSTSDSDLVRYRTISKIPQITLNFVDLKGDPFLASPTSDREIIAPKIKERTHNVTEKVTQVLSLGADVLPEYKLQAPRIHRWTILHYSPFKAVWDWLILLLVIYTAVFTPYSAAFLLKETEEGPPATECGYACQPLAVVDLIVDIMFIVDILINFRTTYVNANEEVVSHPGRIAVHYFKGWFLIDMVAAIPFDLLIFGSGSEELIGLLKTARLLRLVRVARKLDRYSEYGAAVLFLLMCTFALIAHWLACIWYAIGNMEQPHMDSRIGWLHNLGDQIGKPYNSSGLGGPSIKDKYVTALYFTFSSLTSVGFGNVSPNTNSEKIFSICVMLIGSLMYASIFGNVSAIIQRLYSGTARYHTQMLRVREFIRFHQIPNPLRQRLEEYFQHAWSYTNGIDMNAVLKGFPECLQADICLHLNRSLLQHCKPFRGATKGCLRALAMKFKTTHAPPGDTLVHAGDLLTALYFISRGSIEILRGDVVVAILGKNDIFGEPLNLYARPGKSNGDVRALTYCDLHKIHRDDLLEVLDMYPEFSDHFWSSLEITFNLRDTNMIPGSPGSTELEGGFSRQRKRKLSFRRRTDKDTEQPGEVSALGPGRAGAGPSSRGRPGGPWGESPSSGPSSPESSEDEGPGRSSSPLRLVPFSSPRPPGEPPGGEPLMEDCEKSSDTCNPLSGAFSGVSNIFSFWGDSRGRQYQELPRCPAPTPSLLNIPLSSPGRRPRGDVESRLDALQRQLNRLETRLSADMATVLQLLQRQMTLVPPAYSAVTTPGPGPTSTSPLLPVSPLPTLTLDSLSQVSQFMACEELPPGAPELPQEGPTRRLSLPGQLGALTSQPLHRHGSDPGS

Structure (SMILES)	% inhibition of tail peak current (IKr)
CNC(=O)c1ccc(-c2ccc(F)c([C@]3(C)C=CSC(N)=N3)c2)cn1 [Compound 92]	7.9%
C=C1C[C@@](C)(c2cc(NC(=O)c3cnc(OC)cn3)cnc2C)N=C(N)S1 [Compound 102]	2.3%
